The target of assay [1] is T1, PDE2 (Bos taurus, UniProt P14099).
T1 construct: tissue Tokyo Shibaura Zoki; host or cells: bovine adrenal gland, soluble fraction, ion-exchange fractions
T1 sequence (P14099 1-921): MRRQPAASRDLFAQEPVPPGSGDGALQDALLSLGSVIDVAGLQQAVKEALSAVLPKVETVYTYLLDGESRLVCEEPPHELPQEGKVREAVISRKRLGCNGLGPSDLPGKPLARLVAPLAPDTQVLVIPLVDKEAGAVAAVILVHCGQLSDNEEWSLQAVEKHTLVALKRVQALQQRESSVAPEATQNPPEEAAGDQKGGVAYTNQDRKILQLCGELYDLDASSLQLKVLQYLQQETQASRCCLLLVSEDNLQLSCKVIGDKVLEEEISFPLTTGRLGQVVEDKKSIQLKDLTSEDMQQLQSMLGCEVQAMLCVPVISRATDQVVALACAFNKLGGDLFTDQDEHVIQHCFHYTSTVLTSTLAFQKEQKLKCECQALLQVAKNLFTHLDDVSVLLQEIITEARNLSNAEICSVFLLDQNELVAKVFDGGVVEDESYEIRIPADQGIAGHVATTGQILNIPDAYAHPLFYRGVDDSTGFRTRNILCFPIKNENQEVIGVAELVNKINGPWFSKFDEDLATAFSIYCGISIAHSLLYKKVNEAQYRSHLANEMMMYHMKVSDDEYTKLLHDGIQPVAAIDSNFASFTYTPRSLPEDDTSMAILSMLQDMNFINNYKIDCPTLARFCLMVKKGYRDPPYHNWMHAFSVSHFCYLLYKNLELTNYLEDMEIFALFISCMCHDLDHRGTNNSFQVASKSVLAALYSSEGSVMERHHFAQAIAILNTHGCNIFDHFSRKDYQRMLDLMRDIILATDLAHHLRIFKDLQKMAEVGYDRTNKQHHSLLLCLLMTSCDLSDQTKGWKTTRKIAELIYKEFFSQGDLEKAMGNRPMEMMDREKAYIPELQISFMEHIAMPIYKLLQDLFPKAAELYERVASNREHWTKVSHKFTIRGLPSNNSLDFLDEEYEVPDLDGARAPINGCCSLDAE
Briefly: PDE assay, PDE2 enzyme solution from bovine adrenal gland. It is filed as biochemical, Japanese Black Cattle. The procedure: One adrenal gland of Japanese Black Cattle, purchased from Tokyo Shibaura Zoki, co., Ltd. was washed with 100 ml of ice-cold saline (0.9% sodium chloride) twice. Subsequently, the tissues were cut into about 1 gram, and it was frozen by liquid nitrogen. To about 2 g of this tissue sample was added 10 ml of an ice-cold homogenization buffer II (25 mM Tris-HCl, pH 7.5, 4 mM magnesium chloride, 0.5 mM EGTA, 2 mM dithiothreitol, 4 mM benzamidine, 0.1 mM phenylmethylsulfonyl fluoride), and the homogenate that was homogenized by Polytron homogenizer for 3 minutes was centrifuged at 8000 rpm, at 4° C. for 20 minutes, and the obtained supernatant was further centrifuged by an ultracentrifuge at 50000 rpm, at 4° C. for 60 minutes. The resultant supernatant was stored at 4° C.
(§1) This supernatant was applied to chromatography under the FPLC system, in the same manner as in Example 1 (1) above. […]
Subsequently, the eluted fractions were used as an enzyme solution for PDE assay, and cGMP-hydrolyzing activity was measured. Or, cAMP-hydrolyzing activity was measured for respective fractions, in the presence or absence of unlabeled cGMP. […]

Assay [2] has as its system PDE1. As to the kind of experiment: PDE assay, PDE1 enzyme solution from rat ventricle. Particulars: E4021 100 nM. The assay is classed as biochemical, SD rat. The procedure: Ventricle was excised from SD rat anesthetized with sodium pentobarbital (Nihon SLC, about 300 g), and washed with 100 ml of ice-cold saline 3 times. After the tissues were cut in approximately 1 g, it was frozen by liquid nitrogen, and stored at −80° C.
To about 5 g of this tissue sample was added 16 ml of an ice-cold homogenization buffer I, and the resultant mixture was homogenized by Polytron homogenizer for 3 minutes. The homogenate was centrifuged at 8000 rpm, at 4° C. for 20 minutes, and the obtained supernatant was further centrifuged by an ultracentrifuge at 50000 rpm, at 4° C. for 60 minutes. The resultant supernatant was stored at 4° C. […]
Subsequently, the eluted fractions were used as an enzyme solution for PDE assay. […] (final concentration of 1 mM) or calcium chloride (final concentration of 2 mM) and calmodulin (40 unit s/ml), and cGMP-hydrolyzing activity was measured.
For these PDE1 containing fractions, cGMP hydrolyzing activities were analyzed in the presence of E4021 (100 nM), PDE5 specific inhibitor, it was shown that the cGMP-hydrolyzing activities in these fractions were not inhibited by E4021. […]
Further, in the presence or absence of unlabeled cGMP, cAMP-PDE activities were measured for each of the fractions. […]
Still further, in the presence of rolipram (10 μm), the PDE4 specific inhibitor, cAMP hydrolyzing activities were measured for each of the fractions. […]

The target in assay [3] is T2, PDE3 (Canis lupus familiaris, UniProt A0A8I3NYE0).
T2 sequence (A0A8I3NYE0 1-1135): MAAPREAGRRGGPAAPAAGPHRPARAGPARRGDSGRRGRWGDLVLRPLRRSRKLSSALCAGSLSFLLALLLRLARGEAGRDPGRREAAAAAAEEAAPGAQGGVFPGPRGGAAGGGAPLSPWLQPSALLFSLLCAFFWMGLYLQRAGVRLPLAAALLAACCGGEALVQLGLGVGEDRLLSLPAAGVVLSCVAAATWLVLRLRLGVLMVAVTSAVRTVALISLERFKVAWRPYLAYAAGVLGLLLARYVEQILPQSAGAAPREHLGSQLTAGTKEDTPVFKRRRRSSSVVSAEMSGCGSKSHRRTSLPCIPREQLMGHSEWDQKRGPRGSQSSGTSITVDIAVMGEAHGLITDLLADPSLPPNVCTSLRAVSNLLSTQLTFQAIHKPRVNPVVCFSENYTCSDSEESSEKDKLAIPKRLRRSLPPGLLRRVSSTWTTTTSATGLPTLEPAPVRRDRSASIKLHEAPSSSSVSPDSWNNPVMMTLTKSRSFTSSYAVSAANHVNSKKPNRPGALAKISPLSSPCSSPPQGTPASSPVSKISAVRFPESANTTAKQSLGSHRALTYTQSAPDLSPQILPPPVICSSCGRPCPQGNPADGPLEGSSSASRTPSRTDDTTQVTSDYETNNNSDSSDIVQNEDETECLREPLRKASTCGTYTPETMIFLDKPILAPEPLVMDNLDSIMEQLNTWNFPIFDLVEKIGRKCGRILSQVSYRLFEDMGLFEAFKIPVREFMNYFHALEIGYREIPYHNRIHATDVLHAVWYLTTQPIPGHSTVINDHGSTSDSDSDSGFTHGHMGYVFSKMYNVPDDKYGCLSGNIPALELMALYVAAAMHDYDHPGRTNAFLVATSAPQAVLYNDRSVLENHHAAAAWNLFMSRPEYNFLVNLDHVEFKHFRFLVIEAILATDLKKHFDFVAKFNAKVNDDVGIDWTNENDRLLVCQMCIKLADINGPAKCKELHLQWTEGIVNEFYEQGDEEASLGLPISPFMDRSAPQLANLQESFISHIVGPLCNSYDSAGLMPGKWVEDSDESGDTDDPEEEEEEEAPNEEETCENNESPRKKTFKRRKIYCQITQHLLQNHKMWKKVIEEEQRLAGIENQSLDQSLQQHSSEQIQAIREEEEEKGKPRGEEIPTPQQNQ
Briefly: PDE assay, PDE3 enzyme solution from dog ventricle. The assay is classed as biochemical, mixed-breed dog. Here is the method:
Apex portion of ventricle of mixed-breed dog (Oriental Yeast) was excised, and washed with 500 ml of ice-cold saline three times. Subsequently, the tissues were cut into about 3 g, and it was frozen by liquid nitrogen, and stored at −80° C. To about 1 g of this tissue sample was added 10 ml of an ice-cold homogenization buffer II, and the resultant mixture was homogenized by Polytron homogenizer for 3 minutes. The homogenate was centrifuged at 8000 rpm, at 4° C. for 20 minutes, and the obtained supernatant was further centrifuged by an ultracentrifuge at 40000 rpm, at 4° C. for 60 minutes. The resultant supernatant was stored at 4° C.
as §1
Subsequently, the eluted fractions were used as an enzyme solution for PDE assay, and cGMP-hydrolyzing activity was measured. Further, cAMP-hydrolyzing activity was measured for respective fractions, in the presence or absence of unlabeled cGMP. […]

Assay [4] relates to PDE4. As to the kind of experiment: PDE assay, PDE4 enzyme solution from dog lung. The assay is classed as biochemical, mixed-breed dog. The procedure: These fractions were collected and glycerol was added thereto to become 50%, and the mixture was stored at −20° C.
The target of assay [5] is T3, PDE5 (Canis lupus familiaris, UniProt O77746).
T3 construct: These were used as a PDE5 enzyme solution for PDE assay; tissue Oriental Yeast (animals); host or cells: canine lung, soluble fraction, DEAE Sepharose fractions
As to the kind of experiment: PDE assay, PDE5 enzyme solution from canine lung. It is filed as biochemical. The procedure:
In the same manner as in (1-4) above, the supernatant obtained from the homogenate of canine lung tissue was applied to chromatography under FLPC system, to collect eluted fractions of 2 ml each.
Subsequently, the eluted fractions were used as an enzyme solution for PDE assay, and cGMP-hydrolyzing activity was measured for respective fractions, in the presence or absence of E4021, the PDE5 specific inhibitor.
Further, for examining contamination of PDE1, which is adjacently eluted, cGMP-hydrolyzing PDE activity of the respective fractions were measured in the same assay buffer containing EGTA (final concentration of 1 mM) [or calcium chloride (final concentration of 2 mM) and calmodulin (40 units/ml)].
These fractions were collected and glycerol was added thereto to become 50%, and the mixture was stored at −20° C. These were used as a PDE5 enzyme solution for PDE assay.

In the case of `CCCCCC[C@@H]([C@@H](C)O)n1cnc2c(N)ncnc21` (racemic) [EHNA, erythro-9-(2-hydroxy-3-nonyl)adenine, reference compound], in assay [1], the “PDE activity of PDE2 enzyme solution in the presence of inhibitor” value is recorded as “inhibited”.

With `O=C(O)C1CCN(c2nc(NCc3ccc4c(c3)OCO4)c3cc(Cl)ccc3n2)CC1` [Compound E4021, reference compound], the “cGMP-hydrolyzing activity of PDE1 containing fractions in the presence of inhibitor” value in assay [2] is given as “not inhibited”. Consider `Cc1[nH]c(=O)c(C#N)cc1-c1ccncc1` [milrinone], for which the “PDE activity of PDE3 enzyme solution in the presence of inhibitor” value in assay [3] is “inhibited”.

For the compound `COc1ccc(C2CNC(=O)C2)cc1OC1CCCC1` (centres unmarked) [rolipram, reference compound], the “PDE activity of PDE4 enzyme solution in the presence of inhibitor” value in assay [4] is listed as “inhibited”. Regarding `CCCc1nn(C)c2c(=O)[nH]c(-c3cc(S(=O)(=O)N4CCN(C)CC4)ccc3OCC)nc12` [sildenafil, reference compound], in assay [5], the “PDE activity of PDE5 enzyme solution in the presence of inhibitor” value is listed as “inhibited”.

Values taken from patent US8338420B1, “Treatment of Parkinson's disease and enhancement of dopamine signal using PDE 10 inhibitor” (Mitsubishi Tanabe Pharma Corporation, priority 2002, dated 2012).
